Measured values published in paper PMC6527858, “FABP1 controls hepatic transport and biotransformation of Δ^9-THC” (Scientific Reports, 2019).
Read-outs that look alike come from different tables or passages of the source.

Legend:
human FABP1 [1] = biological target: T1, human FABP1 (Homo sapiens, UniProt P07148); experiment: DAUDA fluorescence displacement binding assay; details: for maximal displacement of the fluorescent probe DAUDA: maximal effect in the tested concentration range
T1 construct: His tag (N); host or cells: BL21(DE3) Escherichia coli
T1 sequence (P07148 1-127): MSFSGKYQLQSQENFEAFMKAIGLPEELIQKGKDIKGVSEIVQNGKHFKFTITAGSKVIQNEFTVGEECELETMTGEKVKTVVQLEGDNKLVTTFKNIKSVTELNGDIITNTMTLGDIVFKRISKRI
Procedure: Human FABP1 in a pNIC28-Bsa4 vector was obtained from Addgene (plasmid #42344; Addgene, Cambridge, MA, USA). Following sequence verification the construct was transformed into BL21(DE3) Escherichia coli for expression. The recombinant FABP1 protein was purified by nickel-affinity chromatography as described previously. Residual endogenous bacterial lipids were stripped from the purified protein by incubation in a column of hydroxyalkoxypropyl-dextran (Sigma Chemical Co., St Louis, MO, USA) for 1 hour at 37 °C.
Binding assays were carried out in 96-well Costar® plates (Corning Life Science, Kennebunk, ME, USA). FABP1 (3 μM) was incubated with DAUDA (500 nM), in binding assay buffer (30 mM Tris-HCl, 100 mM NaCl, pH 7.6). Competitor test compounds (0.1–500 μM) were then introduced to the well, mixed, and the system was allowed to equilibrate for 20 minutes at 25 °C in the dark. All experimental conditions were tested in triplicate. […] Loss of fluorescence intensity was monitored with an F5 Filtermax Multi-Mode Microplate Reader (Molecular Devices, Sunnyvale, CA, USA) using excitation/emission wavelengths = 345/535 nm. Following background subtraction, raw fluorescence intensity values were normalized and fit to a one-site competition binding analysis using the Graphpad Prism software.

[2] = THC pharmacokinetics in wild-type and FABP1-KO mice (LC-MS/MS of brain and plasma); details: THC 10 mg/kg i.p.; for AUC: 0-24 h
Procedure: The pharmacokinetics of THC were subsequently examined to determine whether FABP1 regulates THC biotransformation in vivo. Wild-type and FABP1-KO mice were administered a single dose of THC (10 mg/kg, i.p.) and blood plasma and brains were harvested at several time points during a 24-hour time course (0, 0.5, 1, 2, 3, 4, 6, 7, and 24 hours post-THC). Levels of THC and its major primary and secondary metabolites (11-OH-THC and THC-COOH) were subsequently quantified by LC-MS/MS.
Mice were administered THC (10 mg/kg, i.p.) and plasma and brain samples were collected at the following time points: 0, 0.5, 1, 2, 3, 4, 6, 7, 24 hours. Tissues were immediately placed on dry ice and stored at −80 °C until processing. The AUC from time 0 to 24 h was calculated by the trapezoidal rule.
The tissues were rapidly thawed, spiked with 25 μl deuterated internal standard solution (containing THC-d3, 11-OH-THC-d3, and THC-COOH-d3; 5 ng/mL each, in methanol) (Cerillient Corporation, Round Rock, TX, USA) and homogenized on ice in Tris, pH 8.0. Protein precipitation was performed by adding two volumes ice-cold acetonitrile drop-wise while vortexing, centrifuged at 10,000 RCF for 10 minutes at 4 °C, and stored overnight at −20 °C to allow time for complete phase separation. The organic phase was transferred to a new glass tube and dried down under a steady stream of argon gas. The dried samples were resuspended in 100 μl 1:1 acetonitrile:ddH2O and submitted to the Stony Brook Proteomics Center for LC-MS/MS quantification of THC and THC metabolites.

[3] = tested on: body temperature of wild-type and FABP1-KO mice; experiment: THC-induced hypothermia (implanted iButton Thermocron core temperature); format: in vivo, mouse; details: THC 10 mg/kg i.p.
Procedure: (§1) Hypothermia and spontaneous locomotor activity were assessed over a 12 hour period following a single intraperitoneal (i.p.) injection of 10 mg/kg THC or vehicle (1:1:18 DMSO:Cremophor-EL:saline) to naïve mice. This dose was selected because it produces submaximal cannabimimetic effects and potentiation of THC effects is unlikely to be hampered by a ceiling effect[33],[34]. All mice were kept on a 12/12 hour light/dark cycle and THC was administered immediately prior to the dark phase to control for circadian effects. […] Therefore, in the present study THC pharmacodynamics were independently assessed in mice of both genders.
Mice were anesthetized with an i.p. injection of a surgical mixture of ketamine (100 mg/kg) and xylazine (10 mg/kg). Thermocron iButton® (Dallas Semiconductor Company, Dallas, TX, USA) temperature data loggers were sterilized with 70% ethanol and surgically implanted into the abdominal cavities. The mice were permitted to recover from surgery for at least one week prior to being subjected to any experiments. The factory calibrated thermocrons were programmed to record temperature measurements every three minutes with 0.5 °C accuracy and 0.0625 °C precision.

[4] = tested on: locomotor activity of wild-type and FABP1-KO mice; experiment: Home-cage spontaneous locomotor activity (photobeam system); format: in vivo, mouse; details: THC 10 mg/kg i.p., 12 hour period, both sexes
Procedure: as §1
Locomotor activity was measured by the home-cage photobeam activity system (San Diego Instruments, San Diego, CA, USA). In this system each mouse home-cage was surrounded by a 4 × 8 photobeam array that detected and recorded movements in the X and Y directions. The animals were first conditioned to the cages in the testing room for one week to avoid novelty induced changes in locomotor activity. THC or vehicle were injected 10 minutes prior to the onset of the dark cycle and motility data was recorded over the next 12 hour period.

human FABP1 [5] = biological target: T1, human FABP1; experiment: DAUDA probe saturation binding to FABP1 (probe Kd determination); details: FABP1 1 μM, DAUDA 0–16 μM
Procedure: Recombinant human FABP1 (1 μM) was titrated with DAUDA (0–16 μM). The raw fluorescence intensity at each data point was corrected by subtracting the signal from each respective probe concentration in the absence of protein. Kd and Bmax were then calculated by fitting the titration curve to the single-site saturation binding equation [Y = Bmax*X/(Kd + X)] using the GraphPad Prism software (Prism version 7.0 for Mac OS: Graphpad software Incorporated, La Jolla, CA, USA).

[6] = mouse, plasma, ip, 10 mg/kg, AUC, FABP1-KO mice
[7] = mouse, plasma, ip, 10 mg/kg, AUC, wild-type mice
[8] = mouse, plasma, ip, 10 mg/kg, Cmax, FABP1-KO mice
[9] = mouse, plasma, ip, 10 mg/kg, Cmax, wild-type mice

SMILES | maximal displacement of the fluorescent probe DAUDA (human FABP1 [1]) | Ki (human FABP1 [1]) | Cmax ([2]; brain, FABP1-KO mice) | AUC ([2]; brain, FABP1-KO mice) | Cmax ([2]; brain, wild-type mice) | AUC ([2]; brain, wild-type mice) | AUC [2, 6] | AUC [2, 7] | Cmax [2, 8] | Cmax [2, 9] | other results
CCCCCCCCCCCCCCCC(=O)NCCO [PEA, Palmitoylethanolamide] | – | – | – | – | – | – | – | – | – | – | remaining DAUDA fluorescence (human FABP1 [1]; at 50 µM): 101.8 ± 3.3 % fluorescence
C=C(C)[C@@H]1CCC(C)=C[C@H]1c1c(O)cc(CCCCC)cc1O [CBD, cannabidiol] | ~50% | – | – | – | – | – | – | – | – | – | Ki (human FABP1 [1]; FABP1 3 μM, DAUDA 500 nM, 25 °C, 20 min, pH 7.6, read-out: Ki (DAUDA displacement from FABP1)): 3.95 ± 0.65 µM
CCCCCCC(C)(C)c1cc(O)c2c(c1)OC(C)(C)[C@@H]1CC=C(C(=O)O)C[C@@H]21 [AJA, ajulemic acid] | fully displace DAUDA | 26 ± 3.8 µM | – | – | – | – | – | – | – | – | –
CCCCCc1cc(O)c2c(c1)OC(C)(C)[C@@H]1CCC(C)=C[C@@H]21 [THC, ∆^9-tetrahydrocannabinol] | ~50% | 2.93 ± 0.27 µM | 881.9 ± 574.1 pmol/g | 7363 ± 949.0 pmol·h/g | 531.0 ± 71.35 pmol/g | 1446 ± 411.7 pmol·h/g | 25200 ± 7330 ng·h/mL | 11500 ± 2080 ng·h/mL | 34800 ± 2000 ng/mL | 13600 ± 2620 ng/mL | increase in the brain AUC, FABP1-KO compared to WT ([2]; brain): ~ 6 fold; maximum mean body temperature change ([3]; FABP1-KO females): −8.1 °C; maximum mean body temperature change ([3]; FABP1-KO males): −7.4 °C; maximum mean body temperature change ([3]; WT females): −4.8 °C; maximum mean body temperature change ([3]; WT males): −4.8 °C; effect on spontaneous home-cage motility [4]: significant decrease in overall motility
CCCCCCCC/C=C\CCCCCCCC(=O)O [oleic acid] | – | – | – | – | – | – | – | – | – | – | DAUDA displacement (human FABP1 [1]; at 10 µM): 96.5 ± 0.15 % displacement
CN(C)c1cccc2c(S(=O)(=O)NCCCCCCCCCCC(=O)O)cccc12 [DAUDA, 11-(Dansylamino)unadecanoic acid] | – | – | – | – | – | – | – | – | – | – | Kd (human FABP1 [5]): 1.07 ± 0.17 µM
CCCCCc1cc(O)c2c(c1)OC(C)(C)C1CCC(CO)=CC21 (stereo not shown) [11-OH-THC, 11-hydroxy-Δ^9-tetrahydrocannabinol] | – | 7.12 ± 0.79 µM | 243.6 ± 114.3 pmol/g | 1244 ± 314.6 pmol·h/g | 484.4 ± 207.8 pmol/g | 1327 ± 329.3 pmol·h/g | 112 ± 18.4 ng·h/mL | 59.4 ± 14.6 ng·h/mL | 50.6 ± 11.8 ng/mL | 29.5 ± 6.17 ng/mL | time remaining at detectable levels longer in FABP1-KO than in wild-type ([2]; brain and plasma): 1 to 2 h; M/P: metabolite to parent (THC) ratio (AUCm/AUCp) ([2]; brain, FABP1-KO mice): 0.169; M/P: metabolite to parent (THC) ratio (AUCm/AUCp) ([2]; brain, wild-type mice): 0.918; M/P: metabolite to parent (THC) ratio (AUCm/AUCp) ([2]; plasma, FABP1-KO mice): 0.0044; M/P: metabolite to parent (THC) ratio (AUCm/AUCp) ([2]; plasma, wild-type mice): 0.0052
CCCCCc1cc(O)c2c(c1)OC(C)(C)C1CCC(C(=O)O)=CC21 (stereo not shown) [THC-COOH, 11-nor-9-carboxy-Δ^9-tetrahydrocannabinol] | – | 11.2 ± 0.7 µM | 50.02 ± 3.16 pmol/g | 522.6 ± 194.4 pmol·h/g | 58.33 ± 1.21 pmol/g | 362.8 ± 36.94 pmol·h/g | 544 ± 21.2 ng·h/mL | 506 ± 51.4 ng·h/mL | 78.7 ± 2.26 ng/mL | 87.1 ± 5.21 ng/mL | M/P: metabolite to parent (THC) ratio (AUCm/AUCp) ([2]; brain, FABP1-KO mice): 0.071; lower THC-COOH/THC ratio (AUCTHC-COOH/AUCTHC) in FABP1-KO brains vs WT ([2]; brain): 3–4 fold; ∆tmax (later maximal level in FABP1-KO brain vs WT) ([2]; brain): 4 h; M/P: metabolite to parent (THC) ratio (AUCm/AUCp) ([2]; brain, wild-type mice): 0.251; M/P: metabolite to parent (THC) ratio (AUCm/AUCp) ([2]; plasma, FABP1-KO mice): 0.0215; M/P: metabolite to parent (THC) ratio (AUCm/AUCp) ([2]; plasma, wild-type mice): 0.0440
